Measurements taken from US9546401B2, “Assays and methods for selecting a treatment regimen for a subject with depression” (The General Hospital Corporation, priority 2011, dated 2017).
Like-named read-outs stand apart in the source and are kept apart here.

How the values were obtained:
[1] = system: SSRI-resistant outpatients with major depressive disorder (MDD); conditions: for Cardiovascular side effects, NNH / Gastrointestinal side effects, NNH / Infectious side effects, NNH / Miscellaneous side effects, NNH / Psychological side effects, NNH / Sexual side effects, NNH / Sleep side effects, NNH / Somatic side effects, NNH: versus placebo;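 for all read-outs here: adverse events recorded at every visit with the SAFTEE-SI in a 60-day double-blind sequential parallel trial of two 30-day phases, visits every 10 days, placebo as comparator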
Text: The study involved the enrollment of a total of 148 patients with MDD over the course of 12 months across 10 medical centers or hospitals in the United States. […] In accordance with the sequential parallel design [51], the 60-day, double-blind treatment was divided into two phases of 30 days each, with assessments performed every 10 days.

[2] = system: MDD patients carrying the indicated SNP
Text: The term “prevalence” as used in FIG. 8B refers to the total percentage of MDD patients who carry the SNP as indicated in this particular study.

[3] = CACNA1C rs1006737 (AG), genotype code 13
[4] = COMT (Val 158 Met) rs4680 (GG), genotype code 33
[5] = COMT (Val 158 rs4633 (CC), genotype code 22)
[6] = DAT (SLC6A3) rs250682 (CG), genotype code 33
[7] = DNMT3B rs1883729 (AG), genotype code 11/13
[8] = DNMT3B rs1883729 (AG), genotype code 11
[9] = DNMT3B rs1883729 (AG), genotype code 13

CN1c2c(nc(N)[nH]c2=O)NC[C@@H]1CNc1ccc(C(=O)N[C@@H](CCC(=O)O)C(=O)O)cc1 [6(S)-5-MTHF, 6(S)-5-methyltetrahydrofolate]
adverse side effect when administered with an SSRI ([1]; Trial 1): does not appear to cause any adverse side effect
Cardiovascular side effects, Frequency ([1]; Trial 1, 7.5 mg + SSRI, n = 94): 0
Cardiovascular side effects, Frequency (%) ([1]; Trial 1, 7.5 mg + SSRI, n = 94): (0%)
Gastrointestinal side effects, Frequency ([1]; Trial 1, 7.5 mg + SSRI, n = 94): 9
Gastrointestinal side effects, Frequency (%) ([1]; Trial 1, 7.5 mg + SSRI, n = 94): (9.6%)
Infectious side effects, Frequency ([1]; Trial 1, 7.5 mg + SSRI, n = 94): 6
Infectious side effects, Frequency (%) ([1]; Trial 1, 7.5 mg + SSRI, n = 94): (6.4%)
Miscellaneous side effects, Frequency ([1]; Trial 1, 7.5 mg + SSRI, n = 94): 1
Miscellaneous side effects, Frequency (%) ([1]; Trial 1, 7.5 mg + SSRI, n = 94): (1.1%)
Psychological side effects, Frequency ([1]; Trial 1, 7.5 mg + SSRI, n = 94): 2
Psychological side effects, Frequency (%) ([1]; Trial 1, 7.5 mg + SSRI, n = 94): (2.1%)
Sexual side effects, Frequency ([1]; Trial 1, 7.5 mg + SSRI, n = 94): 0
Sexual side effects, Frequency (%) ([1]; Trial 1, 7.5 mg + SSRI, n = 94): (0%)
Sleep side effects, Frequency ([1]; Trial 1, 7.5 mg + SSRI, n = 94): 3
Sleep side effects, Frequency (%) ([1]; Trial 1, 7.5 mg + SSRI, n = 94): (3.2%)
Somatic side effects, Frequency ([1]; Trial 1, 7.5 mg + SSRI, n = 94): 9
Somatic side effects, Frequency (%) ([1]; Trial 1, 7.5 mg + SSRI, n = 94): (9.6%)
Cardiovascular side effects, NNH ([1]; Trial 1, 7.5 mg + SSRI): <placebo
Gastrointestinal side effects, NNH ([1]; Trial 1, 7.5 mg + SSRI): <placebo
Infectious side effects, NNH ([1]; Trial 1, 7.5 mg + SSRI): <placebo
Miscellaneous side effects, NNH ([1]; Trial 1, 7.5 mg + SSRI): <placebo
Psychological side effects, NNH ([1]; Trial 1, 7.5 mg + SSRI): <placebo
Sexual side effects, NNH ([1]; Trial 1, 7.5 mg + SSRI): =placebo
Sleep side effects, NNH ([1]; Trial 1, 7.5 mg + SSRI): <placebo
Somatic side effects, NNH ([1]; Trial 1, 7.5 mg + SSRI): <placebo
Cardiovascular side effects, Frequency ([1]; Trial 1, 15 mg + SSRI, n = 30): 2
Cardiovascular side effects, Frequency (%) ([1]; Trial 1, 15 mg + SSRI, n = 30): (6.7%)
Gastrointestinal side effects, Frequency ([1]; Trial 1, 15 mg + SSRI, n = 30): 3
Gastrointestinal side effects, Frequency (%) ([1]; Trial 1, 15 mg + SSRI, n = 30): (10.0%)
Infectious side effects, Frequency ([1]; Trial 1, 15 mg + SSRI, n = 30): 2
Infectious side effects, Frequency (%) ([1]; Trial 1, 15 mg + SSRI, n = 30): (6.7%)
Miscellaneous side effects, Frequency ([1]; Trial 1, 15 mg + SSRI, n = 30): 2
Miscellaneous side effects, Frequency (%) ([1]; Trial 1, 15 mg + SSRI, n = 30): (6.7%)
Psychological side effects, Frequency ([1]; Trial 1, 15 mg + SSRI, n = 30): 2
Psychological side effects, Frequency (%) ([1]; Trial 1, 15 mg + SSRI, n = 30): (6.7%)
Sexual side effects, Frequency ([1]; Trial 1, 15 mg + SSRI, n = 30): 0
Sexual side effects, Frequency (%) ([1]; Trial 1, 15 mg + SSRI, n = 30): (0%)
Sleep side effects, Frequency ([1]; Trial 1, 15 mg + SSRI, n = 30): 2
Sleep side effects, Frequency (%) ([1]; Trial 1, 15 mg + SSRI, n = 30): (6.7%)
Somatic side effects, Frequency ([1]; Trial 1, 15 mg + SSRI, n = 30): 3
Somatic side effects, Frequency (%) ([1]; Trial 1, 15 mg + SSRI, n = 30): (10.0%)
Cardiovascular side effects, NNH ([1]; Trial 1, 15 mg + SSRI): <placebo
Gastrointestinal side effects, NNH ([1]; Trial 1, 15 mg + SSRI): <placebo
Infectious side effects, NNH ([1]; Trial 1, 15 mg + SSRI): <placebo
Miscellaneous side effects, NNH ([1]; Trial 1, 15 mg + SSRI): <placebo
Psychological side effects, NNH ([1]; Trial 1, 15 mg + SSRI): <placebo
Sexual side effects, NNH ([1]; Trial 1, 15 mg + SSRI): =placebo
Sleep side effects, NNH ([1]; Trial 1, 15 mg + SSRI): <placebo
Somatic side effects, NNH ([1]; Trial 1, 15 mg + SSRI): <placebo
PHASE I EFFFCT, change in HAMD-28 [2, 3]: −8.006
PHASE II EFFFCT, change in HAMD-28 [2, 3]: −2.467
POOLED PHASES EFFFCT, change in HAMD-28 [2, 3]: −4.633
PHASE II EFFFCT, change in HAMD-28 [2, 4]: −10.170
PHASE I EFFFCT, change in HAMD-28 ([2]; COMT (Val 158 Met) rs4680 (GG), genotype code 33, folate-containing compound + SSRI): −12.070
POOLED PHASES EFFFCT, change in HAMD-28 [2, 4]: −10.880
PHASE I EFFFCT, change in HAMD-28 [2, 5]: −10.070
PHASE II EFFFCT, change in HAMD-28 [2, 5]: −10.170
POOLED PHASES EFFFCT, change in HAMD-28 [2, 5]: −9.240
PHASE I EFFFCT, change in HAMD-28 [2, 6]: −5.722
PHASE II EFFFCT, change in HAMD-28 [2, 6]: −5.768
POOLED PHASES EFFFCT, change in HAMD-28 [2, 6]: −4.996
PHASE I EFFFCT, change in HAMD-28 [2, 7]: −6.340
PHASE II EFFFCT, change in HAMD-28 [2, 7]: −4.940
POOLED PHASES EFFFCT, change in HAMD-28 [2, 7]: −5.360
PHASE I EFFFCT, change in HAMD-28 [2, 8]: −2.318
PHASE II EFFFCT, change in HAMD-28 [2, 8]: −5.267
POOLED PHASES EFFFCT, change in HAMD-28 [2, 8]: −4.811
PHASE I EFFFCT, change in HAMD-28 [2, 9]: −8.097
PHASE II EFFFCT, change in HAMD-28 [2, 9]: −4.667
POOLED PHASES EFFFCT, change in HAMD-28 [2, 9]: −6.748
